Results as given in US5776892A, “Anti-inflammatory peptides” (Curative Health Services, Inc., priority 1994, dated 1998).
No end group written: not given here.

Test system: arachidonic acid induced inflammation in mouse ear
Assay: Mouse ear model, arachidonic acid (AA) induced inflammation, ear thickness
Assay type: in vivo
Method: The anti-inflammatory properties of CT-112 (SEQ. ID NO: 1) were assessed using a standardized assay for anti-inflammatory activity, i.e., the mouse ear model in which arachidonic acid (AA) is used to induce an inflammatory reaction (Young et al., 1984, J. Invest. Dermatol. 82:367-371; Doherty, et al., 1988, J. Invest. Dermatol. 91:298-302).
Female mice (C57BL/6UAF, Charles River Breeding Laboratories, approximately 15-18 g) were obtained and acclimated for 2 weeks prior to use. The animals were approximately 14 weeks old at the start of the study.
To prepare minipumps for implantation, CT-112 (SEQ. ID NO: 1) was dissolved in PBS. The material was loaded into Alzet minipumps set to deliver 0.05 (5 animals), 0.1 (10 animals), 1 (10 animals), or 2.5 (5 animals) mg of CT-112 (SEQ. ID NO: 1) per animal per day. Minipumps for implantation into control animals contained only PBS. As a positive control, one set of 10 mice received 100 mg/kg of phenidone, a potent 5-lipoxygenase inhibitor which acts as an anti-inflammatory agent, 15 min prior to challenge with AA.
For subcutaneous implantation of minipumps, animals were anesthetized with Ketamine/Xylazine. The Ketamine (Aveco Lot #440140) was injected at 80 mg/kg and the Xylazine (Rugby Laboratories Lot #26040-B) at 16 mg/kg and the Alzet pumps were implanted subcutaneously in the dorsothoracic area. Animals were allowed to recover and then housed and given food and water ad libitum for 5 days.
On the sixth day following pump implantation, 0.01 ml of AA was applied to the inner and outer surfaces of the right ear by means of an automatic microliter pipette. One hr following AA application, the mice were sacrificed and ear thickness was measured with a Mitutoyo No. 7300 Gauge Caliper. The left ears were also measured as an internal control.
Mice were implanted with Alzet mini-pumps set to deliver 60 mg/kg/day for either 7, 3, or 1 days. A separate group of 5 mice received 3 intraperitoneal injections of CT-112 (60 mg/kg/injection) at 24, 1 and 0.25 hr prior to AA challenge. CT-112 (SEQ. ID NO: 1) was prepared for injection by dissolving the compound in Dulbecco's PBS to give a final CT-112 (SEQ. ID NO: 1) concentration of 5 mg/ml. The control mice were implanted with Alzet minipumps that delivered PBS for 7 days. The AA challenge was the same as described supra in Example 7.
Administration of CT-112 (SEQ. ID NO: 1) (60 mg/kg/injection) via multiple intraperitoneal injections was performed at the following times prior to AA challenge:
In addition, the effect of a single administration of CT-112 (SEQ. ID NO: 1) (60 mg/kg) by intraperitoneal injection was performed at either 1 or 3 hr prior to AA challenge. Control mice had Alzet minipumps implanted to deliver PBS for 7 days prior to AA challenge. The AA challenge was the same as described supra in Example 7. The results of the multiple dosing regimens and the 1 hr and 3 hr single dosing regimens were compared to the anti-inflammatory activity of CT-112 (SEQ. ID NO: 1) delivered via Alzet minipump set to deliver 60 mg/kg/day for 7 days using 5 animals per treatment.
In a separate experiment, the effect of multiple intraperitoneal injections of CT-112 (SEQ. ID NO: 1) at either 6, 3, 1 and 0.25 hr, or 16, 3, 1 and 0.25 hr prior to AA challenge was assessed. The results of both multi-dosing regimens were compared to both phenidone (100 mg/kg administered 15 min prior to AA challenge) and CT-112 (SEQ. ID NO: 1) administered via Alzet mini-pump (60 mg/kg/day for 7 days). For this latter study, the number of animals receiving the single injection of CT-112 (SEQ. ID NO: 1) was increased from 5 to 10.
Administration to mice of CT-112 (SEQ. ID NO: 1) (60 mg/kg/injection) via multiple subcutaneous injections prior to AA challenge was performed at:
In addition, other mice received only a single subcutaneous injection of CT-112 (SEQ. ID NO: 1) (60 mg/kg) at either 3 or 1 hr prior to AA challenge. […]

Row | Compound | % Reduction of Ear Swelling (Table I, phenidone 100 mg/kg, 15 min prior to AA) [%] | % Inhibition (Table XII, 60 mg/kg/day via Alzet pump for 24 hr) [%] | Thickness Difference (Left-Right) (Table XIII, 60 mg/kg/day via Alzet pump for 24 hr) [in]
1 | O=C1CCN(c2ccccc2)N1 [Phenidone, reference compound] | 84.1 |  | 
2 | TTSHVKPQ [CT-135, ID; NO; 20] |  | 73 | 0.00178 ± 0.00073
